9 molecules from patent publication US20230227466A1, “SUBSTITUTED THIENOPYRIMIDINES THAT INTERACT WITH THE RAS SUPERFAMILY FOR THE TREATMENT OF CANCERS, INFLAMMATORY DISEASES, RASOPATHIES, AND FIBROTIC DISEASE” (SHY Therapeutics, LLC, priority 2020, published 2023) can be followed below.

One assay addresses T1, KRas G12C mutant (Homo sapiens, UniProt P01116, G12C).
T1 construct: made in house
Briefly: Ras GTP binding domain inhibition assay (labeled-GTP competition, cell-free). In outline:
(§1)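 Labeled-GTP competition read out as bound Cy3/Cy5-GTP fluorescence after washes, with 100 nM tracer for 45 min at RT. Before tracer, compounds at 20 μM, or a dilution series for IC50, sat 3 h at RT on the Ni-immobilized His-tagged GTPase. Sos GEF (10-30 μg/mL) was optionally present for the last hour.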

The target in a further assay is T2, KRas G12D mutant (Homo sapiens, UniProt P01116, G12D).
T2 construct: made in house
The assay is described as above. In outline: as §1

For another assay, the target named is T3, KRas Q61H mutant (Homo sapiens, UniProt P01116, Q61H).
T3 construct: made in house
The assay is described as above. In short, it runs like this: as §1

Assay [1] concerns ERK1/2 phosphorylation in Panc-1 cells. Briefly: Western ERK1/2 cell-based phosphorylation assay. To be noted: at 10 μM, values in brackets < > are activation %, not inhibition. Also noted: species or system human. In short, it runs like this:
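Western blot with anti-phospho-p44/42 (Thr202/Tyr204) measured ERK1/2 phosphorylation after 15 min EGF (1.5 ng/ml) stimulation. Beforehand, serum-starved (0.5% FBS, overnight) Panc-1 cells received compounds for 6 h at 37 °C, at 10 μM final in 0.3% DMSO or as dilution series for IC50.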

The target in the next assay is KRas wild type (Homo sapiens, UniProt P01116). Nature of the assay: Ras GTP binding domain inhibition assay (labeled-GTP competition, cell-free). Also noted: made in house. In short, it runs like this: as §1
The target in a further assay is Rac-1 (Homo sapiens, UniProt P63000). The description is as above. Also noted: made in house. In outline: as §1
Another assay concerns the target Rho-A (Homo sapiens, UniProt P61586). Described as above. The arrangement: made in house. In short, it runs like this:
as §1

Where [2] appears, read: with SOS, read-out: KRas G12C mutant + SOS: % inh.
Where [3] appears, read: without SOS, read-out: KRas G12C mutant: % inh.
The mark [4] stands for this setting: with SOS, read-out: KRas G12D mutant + SOS: % inh.
[5] abbreviates: without SOS, read-out: KRas G12D mutant: % inh.
[6] abbreviates: with SOS, read-out: KRas Q61H mutant + SOS: % inh.
[7] abbreviates: without SOS, read-out: KRas Q61H mutant: % inh.
Where [8] appears, read: with SOS, read-out: KRas wild type + SOS: % inh.
[9] abbreviates: without SOS, read-out: KRas wild type: % inh.
Setting [10] is: with SOS, read-out: Rac-1 + SOS: % inh.
Where [11] appears, read: without SOS, read-out: Rac-1: % inh.
[12] abbreviates: with SOS, read-out: Rho-A + SOS: % inh.
[13] abbreviates: without SOS, read-out: Rho-A: % inh.

pIC50: −log10 of the molar value. Where two headings read alike, the source gives them in different places. Some results are limits rather than exact numbers.

Turning to `CO[C@H]1CC[C@@H](Nc2nc(C(=O)N3CCCC3)nc3sccc23)C1` (racemic) [Compound 25, Rac-(4-(((1R,3S)-3-Methoxycyclopentyl)amino)thieno[2,3-d]pyrimidin-2-yl)(pyrrolidin-1-yl)methanone], the inhibition at 20 µM at KRas G12C mutant (setting [2]), on KRas G12C mutant (setting [3]), on KRas G12D mutant (setting [4]), at KRas G12D mutant (setting [5]), at KRas Q61H mutant (setting [6]) and at KRas Q61H mutant (setting [7]) was 0% throughout. Besides, the inhibition at 20 µM on KRas wild type (setting [8]), on KRas wild type (setting [9]), at Rac-1 (setting [10]), on Rac-1 (setting [11]), at Rho-A (setting [12]) and at Rho-A (setting [13]) was 0% throughout. The “% inh of ERK1/2 phosphorylation in PANC-1” value (“% inh” below) in assay [1] is reported as 0 (0% inhibition).

With `CO[C@H]1C[C@H](CNc2nc(-c3nccn3C)nc3sc(-c4ccn(C(C)C)n4)c(C)c23)C1` [Compound 48, 6-(1-Isopropyl-1H-pyrazol-3-yl)-N-(((1r,3r)-3-methoxycyclobutyl)methyl)-5-methyl-2-(1-methyl-1H-imidazol-2-yl)thieno[2,3-d]pyrimidin-4-amine], the inhibition at 20 µM on KRas G12C mutant (setting [2]) fell in the range of 51 to 75%; at KRas G12C mutant (setting [3]) it was 51 to 75%; on KRas G12D mutant (setting [4]) it was 51 to 75%; on KRas G12D mutant (setting [5]), 26 to 50%; on KRas Q61H mutant (setting [6]), 51 to 75%; at KRas Q61H mutant (setting [7]) it was 51 to 75%. The inhibition at 20 µM was in the range of 51 to 75% at KRas wild type (setting [8]); 76 to 100% on KRas wild type (setting [9]); 26 to 50% on Rac-1 (setting [10]); 26 to 50% at Rac-1 (setting [11]); 76 to 100% on Rho-A (setting [12]); 51 to 75% on Rho-A (setting [13]). Besides, the “% inh” value in assay [1] was “D (76-100% inhibition)”.

In the case of `COC1CCCN(c2nc(-c3nccn3C)nc3sc(-c4ccn(C(C)C)n4)c(C)c23)C1` (racemic) [Compound 40, rac-6-(1-Isopropyl-1H-pyrazol-3-yl)-4-(3-methoxypiperidin-1-yl)-5-methyl-2-(1-methyl-1H-imidazol-2-yl)thieno[2,3-d]pyrimidine], the inhibition at 20 µM lay within 76 to 100% at KRas G12C mutant (setting [2]); 51 to 75% on KRas G12C mutant (setting [3]); 26 to 50% on KRas G12D mutant (setting [4]); 26 to 50% on KRas G12D mutant (setting [5]); 76 to 100% on KRas Q61H mutant (setting [6]); 51 to 75% on KRas Q61H mutant (setting [7]). In addition, the inhibition at 20 µM at KRas wild type (setting [8]) is 76 to 100%; on KRas wild type (setting [9]), 76 to 100%; on Rac-1 (setting [10]), 51 to 75%; on Rac-1 (setting [11]), 51 to 75%; at Rho-A (setting [12]), 76 to 100%; at Rho-A (setting [13]), 76 to 100%. In addition, the “% inh” value in assay [1] is “D (76-100% inhibition)”.

Turning to `Cc1c(-c2ccn(C(C)C)n2)sc2nc(-c3nccn3C)nc(NCCc3nnn[nH]3)c12` [Compound 46, N-(2-(1H-Tetrazol-5-yl)ethyl)-6-(1-isopropyl-1H-pyrazol-3-yl)-5-methyl-2-(1-methyl-1H-imidazol-2-yl)thieno[2,3-d]pyrimidin-4-amine], the inhibition at 20 µM at KRas G12C mutant (setting [2]) lay within 51 to 75%; on KRas G12C mutant (setting [3]), 51 to 75%; on KRas G12D mutant (setting [4]), 76 to 100%; at KRas G12D mutant (setting [5]), 26 to 50%; on KRas Q61H mutant (setting [6]), 76 to 100%; on KRas Q61H mutant (setting [7]) it was 76 to 100%. The inhibition at 20 µM on KRas wild type (setting [8]) fell in the range of 51 to 75%; on KRas wild type (setting [9]) it was 76 to 100%; at Rac-1 (setting [10]), 76 to 100%; on Rac-1 (setting [11]), 76 to 100%; at Rho-A (setting [12]), 76 to 100%; at Rho-A (setting [13]) it was 76 to 100%. For the same molecule, the “% inh” value in assay [1] is 0 (0% inhibition).

Consider `COCCn1ccnc1-c1nc(N[C@H]2C[C@@H](OC)C2)c2c(-c3ccccc3)c(-c3ccn(C)n3)sc2n1` [Compound 7, N-((1s,3s)-3-Methoxycyclobutyl)-2-(1-(2-methoxyethyl)-1H-imidazol-2-yl)-6-(1-methyl-1H-pyrazol-3-yl)-5-phenylthieno[2,3-d]pyrimidin-4-amine], for which the inhibition at 20 µM was in the range of 76 to 100% at KRas G12C mutant (setting [2]); 76 to 100% at KRas G12C mutant (setting [3]); 76 to 100% at KRas G12D mutant (setting [4]); 51 to 75% at KRas G12D mutant (setting [5]); 76 to 100% on KRas Q61H mutant (setting [6]); 76 to 100% on KRas Q61H mutant (setting [7]). Moreover, the inhibition at 20 µM on KRas wild type (setting [8]), at KRas wild type (setting [9]), on Rac-1 (setting [10]), on Rac-1 (setting [11]), on Rho-A (setting [12]) and on Rho-A (setting [13]) was 76 to 100% in each case. The pIC50 at KRas Q61H mutant (with SOS) was 5.30 to 6.00. The “% inh” value in assay [1] is given as “D (76-100% inhibition)”.

With `CO[C@H]1CC[C@@H](Nc2nc(-c3nccn3C)nc3sc(-c4ccn(C(C)C)n4)c(-c4ccccc4)c23)C1` [Compound 5, 6-(1-Isopropyl-1H-pyrazol-3-yl)-N-((1R,3S)-3-methoxycyclopentyl)-2-(1-methyl-1H-imidazol-2-yl)-5-phenylthieno[2,3-d]pyrimidin-4-amine], the inhibition at 20 µM was 76 to 100% at KRas G12C mutant (setting [2]); 51 to 75% on KRas G12C mutant (setting [3]); 51 to 75% at KRas G12D mutant (setting [4]); 1 to 25% on KRas G12D mutant (setting [5]); 76 to 100% at KRas Q61H mutant (setting [6]); 26 to 50% at KRas Q61H mutant (setting [7]). The inhibition at 20 µM was in the range of 76 to 100% on KRas wild type (setting [8]); 51 to 75% at KRas wild type (setting [9]); 26 to 50% on Rac-1 (setting [10]); 26 to 50% at Rac-1 (setting [11]); 51 to 75% at Rho-A (setting [12]); 51 to 75% at Rho-A (setting [13]). At KRas Q61H mutant (with SOS), the pIC50 is 5.30 to 6.00. Moreover, the “% inh” value in assay [1] is “D (76-100% inhibition)”.

With `COc1cccn2c(-c3nc(O)c4scc(-c5ccccn5)c4n3)ncc12` [Compound 84, 2-(8-Methoxyimidazo[1,5-a]pyridin-3-yl)-7-(pyridin-2-yl)thieno[3,2-d]pyrimidin-4-ol], the inhibition at 20 µM lay within 1 to 25% at KRas G12C mutant (setting [2]); 26 to 50% at KRas G12C mutant (setting [3]); 26 to 50% at KRas G12D mutant (setting [4]); 26 to 50% on KRas G12D mutant (setting [5]); 26 to 50% on KRas Q61H mutant (setting [6]); 26 to 50% at KRas Q61H mutant (setting [7]). The inhibition at 20 µM on KRas wild type (setting [8]) was in the range of 1 to 25%; on KRas wild type (setting [9]) it was 26 to 50%; on Rac-1 (setting [11]), 26 to 50%; on Rho-A (setting [13]), 51 to 75%. Besides, the “% inh” value in assay [1] is 0 (0% inhibition).

Consider `CO[C@H]1CC[C@@H](Nc2nc(-c3nccn3C)nc3sc(-c4cc[nH]n4)c(-c4ccccc4)c23)C1` (racemic) [Example 1, Rac-N-((1R,3S)-3-methoxycyclopentyl)-2-(1-methyl-1H-imidazol-2-yl)-5-phenyl-6-(1H-pyrazol-3-yl)thieno[2,3-d]pyrimidin-4-amine], for which the inhibition at 20 µM on KRas G12C mutant (setting [2]) was 1 to 25%; at KRas G12C mutant (setting [3]), 1 to 25%; on KRas G12D mutant (setting [4]) it was 0%; at KRas G12D mutant (setting [5]) it was 0%; at KRas Q61H mutant (setting [6]) it was 1 to 25%; on KRas Q61H mutant (setting [7]) it was 1 to 25%. In addition, the inhibition at 20 µM on KRas wild type (setting [8]) is 1 to 25%; at KRas wild type (setting [9]), 0%; at Rac-1 (setting [10]), 1 to 25%; at Rac-1 (setting [11]) it was 0%; on Rho-A (setting [12]), 0%; at Rho-A (setting [13]), 1 to 25%. Besides, the negative-log IC50 (pIC50) on KRas Q61H mutant (with SOS) is < 5.00. The “% inh” value in assay [1] is 0 (0% inhibition).

As for `Cc1sc2c(O)nc(-c3ccccn3)nc2c1-c1ccccn1` [Compound 26, 6-Methyl-2,7-di(pyridin-2-yl)thieno[3,2-d]pyrimidin-4-ol], the inhibition at 20 µM on KRas G12C mutant (setting [2]), at KRas G12C mutant (setting [3]), on KRas G12D mutant (setting [4]), at KRas G12D mutant (setting [5]), at KRas Q61H mutant (setting [6]) and at KRas Q61H mutant (setting [7]) was 76 to 100% in each case. In addition, the inhibition at 20 µM is 51 to 75% at KRas wild type (setting [8]); 76 to 100% at KRas wild type (setting [9]); 76 to 100% at Rac-1 (setting [10]); 76 to 100% at Rac-1 (setting [11]); 76 to 100% at Rho-A (setting [12]); 76 to 100% on Rho-A (setting [13]). Moreover, the pIC50 on KRas Q61H mutant (with SOS) is 5.00 to 5.30. Besides, the “% inh” value in assay [1] is on record as 0 (0% inhibition).
